Measurements published in patent publication US12227500B2, “Substituted pyrrolo[2,3-b]pyridines for suppressing toxic endoplasmic reticulum stress” (THE TRUSTEES OF COLUMBIA UNIVERSITY IN THE CITY OF NEW YORK, priority 2018, dated 2025).
Where two headings read alike, the source gives them in different places.

Key:
Assay type in all cases: biochemical
[1] = biological target: T1, panel of 60 human kinases (Homo sapiens, UniProt P24941); experiment: Radiolabeled ATP kinase assay, panel of 60 kinases (Table S5); details: 0.1 μM, 10 μM ATP, read-out: % Enzyme Activity (relative to DSMO controls)
T1 construct: purchased Reaction Biology Corp
Summary of the method: (§1)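 Compounds at two concentrations, 0.1 μM and 0.5 μM, were screened for inhibition of 60 kinases in cell-free assays read out by radiolabeled ATP.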

[2] = biological target: T2, panel of 60 human kinases (Homo sapiens, UniProt Q9UQB9); experiment: as above; details: Aurora C; 0.1 μM; 10 μM ATP; read-out: % Enzyme Activity (relative to DSMO controls)
T2 construct: purchased Reaction Biology Corp
T2 sequence (Q9UQB9 1-309): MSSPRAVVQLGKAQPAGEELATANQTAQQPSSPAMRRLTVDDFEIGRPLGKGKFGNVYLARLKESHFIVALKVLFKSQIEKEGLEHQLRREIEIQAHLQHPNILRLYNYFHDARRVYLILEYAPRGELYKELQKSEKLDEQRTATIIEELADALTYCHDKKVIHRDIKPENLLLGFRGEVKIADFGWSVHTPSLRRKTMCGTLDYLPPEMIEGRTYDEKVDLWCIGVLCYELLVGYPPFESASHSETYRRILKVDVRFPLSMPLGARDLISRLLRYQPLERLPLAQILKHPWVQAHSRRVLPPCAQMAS
Summary of the method: as §1

[3] = biological target: T3, panel of 60 human kinases (Homo sapiens, UniProt Q99683); experiment: as above; details: ASK1/MAP3K5; 0.1 μM; 10 μM ATP; read-out: % Enzyme Activity (relative to DSMO controls)
T3 construct: purchased Reaction Biology Corp
T3 sequence (Q99683 1-1374): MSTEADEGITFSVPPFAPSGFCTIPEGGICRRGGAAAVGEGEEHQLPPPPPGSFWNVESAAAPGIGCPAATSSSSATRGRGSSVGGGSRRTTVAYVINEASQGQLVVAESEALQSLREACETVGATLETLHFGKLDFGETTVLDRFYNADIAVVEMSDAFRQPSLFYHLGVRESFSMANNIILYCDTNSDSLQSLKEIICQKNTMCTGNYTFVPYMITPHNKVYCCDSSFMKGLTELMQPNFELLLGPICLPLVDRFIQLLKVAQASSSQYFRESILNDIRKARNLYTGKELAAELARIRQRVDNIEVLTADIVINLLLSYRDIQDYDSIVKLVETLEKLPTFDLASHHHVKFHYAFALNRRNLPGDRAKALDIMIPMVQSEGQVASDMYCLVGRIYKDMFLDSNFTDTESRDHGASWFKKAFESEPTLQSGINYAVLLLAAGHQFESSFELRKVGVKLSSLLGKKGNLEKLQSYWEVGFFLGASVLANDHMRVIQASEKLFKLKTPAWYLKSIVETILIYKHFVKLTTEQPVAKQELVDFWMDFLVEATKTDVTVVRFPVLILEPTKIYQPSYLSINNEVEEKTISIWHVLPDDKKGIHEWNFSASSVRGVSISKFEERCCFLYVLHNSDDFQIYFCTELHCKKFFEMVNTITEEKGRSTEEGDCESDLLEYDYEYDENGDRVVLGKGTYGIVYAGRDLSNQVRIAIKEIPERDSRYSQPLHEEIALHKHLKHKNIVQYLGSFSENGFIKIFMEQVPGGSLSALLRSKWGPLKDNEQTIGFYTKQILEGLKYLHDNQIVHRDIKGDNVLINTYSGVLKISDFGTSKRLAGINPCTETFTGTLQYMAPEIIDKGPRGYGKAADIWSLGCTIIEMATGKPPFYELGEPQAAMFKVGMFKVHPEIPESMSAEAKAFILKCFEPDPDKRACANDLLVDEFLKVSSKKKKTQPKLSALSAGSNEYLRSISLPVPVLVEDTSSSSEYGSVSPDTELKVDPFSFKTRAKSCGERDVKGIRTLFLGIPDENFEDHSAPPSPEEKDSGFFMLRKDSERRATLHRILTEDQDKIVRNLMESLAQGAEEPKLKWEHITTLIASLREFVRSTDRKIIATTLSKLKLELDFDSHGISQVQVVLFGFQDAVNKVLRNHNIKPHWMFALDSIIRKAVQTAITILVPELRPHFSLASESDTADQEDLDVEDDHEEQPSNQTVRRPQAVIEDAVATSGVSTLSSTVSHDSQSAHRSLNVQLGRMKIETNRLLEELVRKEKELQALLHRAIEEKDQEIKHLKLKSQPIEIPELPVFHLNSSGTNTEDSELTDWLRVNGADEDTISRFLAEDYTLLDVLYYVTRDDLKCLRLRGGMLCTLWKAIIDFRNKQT
Summary of the method: as §1

[4] = biological target: T4, panel of 60 human kinases (Homo sapiens, UniProt Q16539); experiment: as above; details: P38a/MAPK14; 0.1 μM; 10 μM ATP; read-out: % Enzyme Activity (relative to DSMO controls)
T4 construct: purchased Reaction Biology Corp
T4 sequence (Q16539 whole entry): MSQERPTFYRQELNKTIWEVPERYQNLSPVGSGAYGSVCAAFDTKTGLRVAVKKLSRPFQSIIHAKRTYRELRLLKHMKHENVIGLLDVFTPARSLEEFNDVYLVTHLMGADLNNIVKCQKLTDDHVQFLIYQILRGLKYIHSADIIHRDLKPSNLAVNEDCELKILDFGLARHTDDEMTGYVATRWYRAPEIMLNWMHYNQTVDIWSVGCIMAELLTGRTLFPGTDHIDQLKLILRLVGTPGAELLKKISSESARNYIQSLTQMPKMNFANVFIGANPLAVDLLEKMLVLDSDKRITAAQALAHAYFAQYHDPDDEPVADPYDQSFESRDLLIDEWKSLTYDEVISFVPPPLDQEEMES
Summary of the method: as §1

[5] = biological target: T5, panel of 60 human kinases (Homo sapiens, UniProt P53778); experiment: as above; details: P38g; 0.1 μM; 10 μM ATP; read-out: % Enzyme Activity (relative to DSMO controls)
T5 construct: purchased Reaction Biology Corp
T5 sequence (P53778 1-367): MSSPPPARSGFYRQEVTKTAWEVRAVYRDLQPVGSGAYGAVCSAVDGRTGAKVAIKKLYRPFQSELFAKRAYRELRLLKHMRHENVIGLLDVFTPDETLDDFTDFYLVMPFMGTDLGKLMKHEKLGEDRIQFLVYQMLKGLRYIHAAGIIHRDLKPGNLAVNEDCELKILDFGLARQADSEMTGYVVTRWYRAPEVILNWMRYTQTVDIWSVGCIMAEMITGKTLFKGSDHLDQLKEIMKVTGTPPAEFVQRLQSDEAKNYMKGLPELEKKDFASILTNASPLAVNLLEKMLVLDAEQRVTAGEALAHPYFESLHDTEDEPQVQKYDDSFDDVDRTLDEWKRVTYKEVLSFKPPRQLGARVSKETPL
Summary of the method: as §1

MLK3/MAP3K11 = biological target: T6, MLK3/MAP3K11 (Homo sapiens, UniProt Q16584); experiment: Radiolabeled ATP kinase assay (Reaction Biology Corp.), MLK3; details: [Cmpd] 0.1 μM; 10 μM ATP
T6 construct: purchased Reaction Biology Corp
T6 sequence (Q16584 whole entry): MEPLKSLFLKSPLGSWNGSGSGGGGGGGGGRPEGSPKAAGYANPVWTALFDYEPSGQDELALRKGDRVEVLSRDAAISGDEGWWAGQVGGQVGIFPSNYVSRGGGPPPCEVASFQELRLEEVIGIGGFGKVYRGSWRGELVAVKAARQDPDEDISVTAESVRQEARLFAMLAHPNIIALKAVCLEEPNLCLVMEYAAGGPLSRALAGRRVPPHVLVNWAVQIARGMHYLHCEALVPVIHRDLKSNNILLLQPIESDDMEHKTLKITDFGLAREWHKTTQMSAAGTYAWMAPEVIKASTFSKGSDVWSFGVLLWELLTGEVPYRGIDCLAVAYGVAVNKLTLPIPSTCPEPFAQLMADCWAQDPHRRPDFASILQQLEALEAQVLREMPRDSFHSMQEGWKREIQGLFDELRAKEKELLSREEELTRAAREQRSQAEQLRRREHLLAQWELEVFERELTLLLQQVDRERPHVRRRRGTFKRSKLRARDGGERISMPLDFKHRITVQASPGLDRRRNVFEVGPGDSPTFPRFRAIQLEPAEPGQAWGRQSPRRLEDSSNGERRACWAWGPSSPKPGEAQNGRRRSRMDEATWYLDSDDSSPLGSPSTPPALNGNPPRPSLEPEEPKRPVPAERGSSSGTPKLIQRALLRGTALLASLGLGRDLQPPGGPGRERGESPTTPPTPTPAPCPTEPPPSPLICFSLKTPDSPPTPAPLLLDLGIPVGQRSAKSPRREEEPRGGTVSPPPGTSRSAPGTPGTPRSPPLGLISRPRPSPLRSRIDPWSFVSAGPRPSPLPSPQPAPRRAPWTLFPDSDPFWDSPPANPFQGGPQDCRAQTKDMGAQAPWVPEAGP
Method: Meanwhile, the same analogs were analyzed in a radiolabeled ATP assay (10 μM ATP; Reaction Biology Corp.) to compare the extent to which they could inhibit the activity of HGK, MLK1, or MLK3 in a cell-free environment (Table S3 and S4).

SMILES	remaining activity at 0.1 µM ([1]; CDK2/cyclin A1) [%]	remaining activity at 0.1 µM ([1]; CDK2/cyclin A) [%]	remaining activity at 0.1 µM ([1]; CDK2/cyclin E) [%]	remaining activity at 0.1 µM ([1]; CDK2/cyclin O) [%]	remaining activity at 0.1 µM [2] [%]	remaining activity at 0.1 µM [3] [%]	remaining activity at 0.1 µM [4] [%]	remaining activity at 0.1 µM [5] [%]	% Enzyme Activity Remaining (relative to DMSO controls), MLK3/MAP3K11, Data 1 (MLK3/MAP3K11) [%]	% Enzyme Activity Remaining (relative to DMSO controls), MLK3/MAP3K11, Data 2 (MLK3/MAP3K11) [%]
COc1ccccc1-c1c[nH]c2ncc(-c3ccc(CN4CCN(C)CC4)cc3)cc12 [Compound 7at, 3-(2-Methoxyphenyl)-5-(4-((4-methylpiperazin-1-yl)methyl)phenyl)-1H-pyrrolo[2,3-b]pyridine]	58.8	56.1	80.6	29.6	107	96.3	96.2	103	24.55	21.30
Cc1nn(C)c(C)c1-c1c[nH]c2ncc(-c3ccc(CN4CCN(C)CC4)cc3)cc12 [Compound 7ai, 5-(4-((4-Methylpiperazin-1-yl)methyl)phenyl)-3-(1,3,5-trimethyl-1H-pyrazol-4-yl)-1H-pyrrolo[2,3-b]pyridine]	87.8	90.9	94.8	77.9	122	96.2	98.2	106	93.11	88.00
CN1CCN(Cc2ccc(-c3cnc4[nH]cc(-c5ccncc5)c4c3)cc2)CC1 [Compound 7n, 5-(4-((4-Methylpiperazin-1-yl)methyl)phenyl)-3-(pyridin-4-yl)-1H-pyrrolo[2,3-b]pyridine]	60.2	66	54.3	43.7	101	95.4	101	114	91.26	92.62
CN1CCN(Cc2ccc(-c3cnc4[nH]cc(-c5cnn(Cc6ccccc6)c5)c4c3)cc2)CC1 [Compound 7ah, 3-(1-Benzyl-1H-pyrazol-4-yl)-5-(4-((4-methylpiperazin-1-yl)methyl)phenyl)-1H-pyrrolo[2,3-b]pyridine]	30.7	44.2	48.9	19.2	78.5	95.6	109	106	32.02	32.11
